The target in series [1] is T1, hT1R2/hT1R3 sweet receptor expressed in HEK293 cell line (Homo sapiens, UniProt Q7RTX0+Q8TE23).
T1 construct: expressed in transfected cells; host or cells: HEK293 derivative stably expressing Gα15 and hT1R2/hT1R3, clone S-9
T1 sequence (Q8TE23 20-839): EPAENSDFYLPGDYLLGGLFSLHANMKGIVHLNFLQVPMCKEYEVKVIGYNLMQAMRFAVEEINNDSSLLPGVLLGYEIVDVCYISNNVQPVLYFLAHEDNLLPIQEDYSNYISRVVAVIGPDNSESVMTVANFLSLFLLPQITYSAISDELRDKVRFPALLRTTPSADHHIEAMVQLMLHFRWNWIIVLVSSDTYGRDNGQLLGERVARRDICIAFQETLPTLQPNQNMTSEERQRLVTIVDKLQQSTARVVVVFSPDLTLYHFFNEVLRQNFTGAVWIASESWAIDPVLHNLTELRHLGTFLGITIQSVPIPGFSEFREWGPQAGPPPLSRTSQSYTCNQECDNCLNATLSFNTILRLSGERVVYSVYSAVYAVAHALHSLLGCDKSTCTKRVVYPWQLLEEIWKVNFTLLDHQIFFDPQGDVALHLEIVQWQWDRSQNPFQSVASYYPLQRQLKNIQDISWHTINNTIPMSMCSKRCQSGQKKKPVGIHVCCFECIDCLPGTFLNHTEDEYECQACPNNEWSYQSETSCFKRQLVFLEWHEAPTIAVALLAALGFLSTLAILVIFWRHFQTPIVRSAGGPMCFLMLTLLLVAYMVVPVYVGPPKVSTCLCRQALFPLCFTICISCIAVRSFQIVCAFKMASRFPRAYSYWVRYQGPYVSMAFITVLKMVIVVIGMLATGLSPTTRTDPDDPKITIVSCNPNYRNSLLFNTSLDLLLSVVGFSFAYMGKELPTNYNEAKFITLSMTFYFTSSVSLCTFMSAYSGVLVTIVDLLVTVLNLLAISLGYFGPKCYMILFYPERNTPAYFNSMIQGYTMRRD
T1 sequence (Q7RTX0 21-852): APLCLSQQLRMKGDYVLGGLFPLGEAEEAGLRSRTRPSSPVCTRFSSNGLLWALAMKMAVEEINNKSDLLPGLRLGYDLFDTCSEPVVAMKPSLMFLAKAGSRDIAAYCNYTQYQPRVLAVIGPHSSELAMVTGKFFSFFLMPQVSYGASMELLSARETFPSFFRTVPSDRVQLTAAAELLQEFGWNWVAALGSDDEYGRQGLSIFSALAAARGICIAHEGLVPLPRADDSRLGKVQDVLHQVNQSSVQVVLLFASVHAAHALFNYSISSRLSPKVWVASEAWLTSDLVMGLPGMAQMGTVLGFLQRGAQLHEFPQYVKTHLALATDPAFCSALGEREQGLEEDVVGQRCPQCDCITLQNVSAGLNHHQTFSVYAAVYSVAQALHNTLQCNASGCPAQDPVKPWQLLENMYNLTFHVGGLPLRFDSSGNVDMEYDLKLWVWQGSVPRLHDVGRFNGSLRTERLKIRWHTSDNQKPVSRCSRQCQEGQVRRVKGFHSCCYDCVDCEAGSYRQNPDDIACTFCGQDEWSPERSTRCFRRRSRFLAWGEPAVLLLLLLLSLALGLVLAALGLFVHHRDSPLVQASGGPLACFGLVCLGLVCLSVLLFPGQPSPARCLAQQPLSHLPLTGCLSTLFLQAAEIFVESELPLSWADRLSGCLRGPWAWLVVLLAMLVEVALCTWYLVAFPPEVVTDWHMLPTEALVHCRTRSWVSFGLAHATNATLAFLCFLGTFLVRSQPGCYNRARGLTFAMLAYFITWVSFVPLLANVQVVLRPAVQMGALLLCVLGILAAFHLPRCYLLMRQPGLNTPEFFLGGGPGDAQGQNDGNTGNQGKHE
Nature of the series: In vitro hT1R2/hT1R3-HEK293 taste receptor activation assay (FLIPR). Conditions: read-out: EC50 for activation of a hT1R2/hT1R3 sweet receptor expressed in HEK293 cell line. It is filed as cell-based. The procedure, abridged:
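HEK293 cells stably expressing Gα15 and hT1R2/hT1R3 were loaded with Fluo-3AM (4 μM, 1 h, room temperature), then stimulated at room temperature in D-PBS. Peak fluorescence (ex 480/em 535 nm) was normalized to basal. Dose-responses were run in duplicate over 60 nM–30 μM, normalized to 400 mM D-fructose, and EC50 fitted by free-Hill non-linear regression.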

Series [2] deals with Human Panelists. The series can be described thus: Line Scale sensory testing human taste test (Table C). The class given is in vivo. The note with it: low sodium buffer pH 7.1. An excerpt:
Purpose: To create a dose-response curve for perceived sweetness intensity of fructose-glucose concentrations. Test samples containing experimental compound are compared to this dose-response curve to determine equivalent sweetness intensity. This type of study requires a number of evaluations in order to obtain statistically significant data, so the test may be repeated with the same or additional panelists.
Overview: A group of eight or more panelists taste solutions including fructose-glucose at various concentrations, as well as the experimental compound, both with and without added fructose-glucose. Panelists rate sweetness intensity of all samples on an unstructured horizontal line scale, anchored from 0 to 10, where 0 equals no sweetness and 10 equals intense sweetness. Scores for sweetness intensity are averaged across panelists. Then using the average scores and/or equation of the line for the fructose-glucose dose-response curve, equivalent sweetness fructose-glucose concentrations are determined for the samples containing experimental compound.
Procedure: Eight or more subjects are used for the Line Scale tests. Subjects have been previously familiarized with the key attribute taste and are trained to use the 0 to 10 unstructured line scale. Subjects refrain from eating or drinking (except water) for at least 1 hour prior to the test. Subjects eat a cracker and rinse with water several times to clean the mouth.
Fructose-glucose solutions are provided at a wide range of concentrations, such as 0%, 2%, 4%, 6%, 8%, and 10% fructose-glucose, in order to create the dose-response curve. Samples containing experimental compound are prepared both alone and in a 6% fructose-glucose solution. All samples are made up in low sodium buffer pH 7.1. In order to aid dispersion, solutions can also be made up in 0.1% ethanol.
The solutions are dispensed in 20 ml volumes into 1 oz. sample cups and served to the subjects at room temperature. All samples are presented in randomized counterbalanced order to reduce response bias. Further, two sessions of testing may be used to check panel precision.
Subjects taste each sample individually and rate sweetness intensity on the line scale prior to tasting the next sample. All samples are expectorated. Subjects may retaste the samples but can only use the volume of sample given. Subjects must rinse with water between samples. Eating an unsalted cracker between sample pairs may be required depending on the samples tasted.
The scores for each sample are averaged across subjects and standard error is calculated. The dose-response curve is plotted graphically, and this may be used to ensure the panel is rating accurately; i.e. increasing the concentration of fructose-glucose should correspond to increased average scores for sweetness. A 2-way ANOVA (factors being samples and panelists) and multiple comparison tests (such as Tukey's Honestly Significant Difference test) can be used to determine differences among samples and/or panelists. A 3-way ANOVA, with sessions as the third factor, can be used to determine if there is any difference in the ratings between sessions.

The subject of series [3] is Human Panelists. The series can be described thus: Difference from Reference human taste test (Table B). It is filed as in vivo. Conditions: 5 μM compound + 6% fructose/glucose, pH 7.1. The source says: Purpose: To determine how the intensity of a test sample of an experimental compound differs from that of a reference sample in terms of sweetness. This type of study requires a larger number of evaluations in order to obtain statistically significant data, so the test may be repeated with the same or additional panelists.
Subjects rate the difference in intensity of the test sample compared to the reference sample for the key attribute on a scale of −5 (much less sweet than the reference) to +5 (much sweeter than the reference). A score of 0 indicates the test sample is equally as sweet as the reference.
Procedure: Ten or more Subjects are used for the Difference from Reference tests. Subjects have been previously familiarized with the key attribute taste and are trained to use the −5 to +5 scale. Subjects refrain from eating or drinking (except water) for at least 1 hour prior to the test. Subjects eat a cracker and rinse with water four times to clean the mouth. […]
The scores for each test are averaged across Subjects and standard error is calculated. Panel accuracy can be determined using the score from the blind reference test. […]

Where [4] appears, read: 10 μM compound + 6% fructose/glucose.
Setting [5] is: 5 μM compound + 6% fructose/glucose.

Turning to `CCC(C)CNC(=O)C(C)(C)c1ccc(-c2cncnc2)cc1` (stereo not drawn) [Compound 25, 2-methyl-N-(2-methylbutyl)-2-(4-(pyrimidin-5-yl)phenyl)propanamide], the EC50 in series [1] was 0.23 µM. The “Perceived Equivalent Sweet Solution” value in series [2] (setting [4]) is reported as “Equal to 10% fructose/ % fructose/glucose”.

In the case of `CC[C@@H](CO)NC(=O)C(C)(C)c1ccc(-c2cccc(COC)c2)cc1` [Compound 39, (S)-N-(1-hydroxybutan-2-yl)-2-(3′-(methoxymethyl)biphenyl-4-yl)-2-methylpropanamide], the melting point (commonly the temperature of the solid-liquid transition) is 73 to 75 °C. In series [1], the EC50 was found to be 1.87 µM. Also, the “Perceived Equivalent Sweet Solution” value in series [2] (15 μM compound + 6% fructose/glucose) is “Equal to 8% fructose/ % fructose/glucose”.

In the case of `Cc1cscc1-c1ccc(C(C)(C)C(=O)NCC(C)C)cc1` [Compound 2, N-Isobutyl-2-methyl-2-(4-(4-methylthiophen-3-yl)phenyl)propanamide], the EC50 in series [1] stood at 0.85 µM. In addition, the “Perceived Equivalent Sweet Solution” value in series [3] is recorded as not below 9% fructose/glucose.

In the case of `CC(C)CNC(=O)C(C)(C)c1ccc(-c2cncc(C#N)n2)cc1` [Compound 20, 2-(4-(6-cyanopyrazin-2-yl)phenyl)-N-isobutyl-2-methylpropanamide], the EC50 in series [1] turned out to be 0.02 µM. Further, the “Perceived Equivalent Sweet Solution” value in series [2] (setting [4]) is listed as “Equal to 10% fructose/ % fructose/glucose”; in series [2] (10 μM compound alone), “Equal to 6% fructose/ % fructose/glucose”.

As for `COCc1cccc(-c2ccc(C(C)(C)C(=O)NCC(C)C)cc2)c1` [Compound 30, N-isobutyl-2-(3′-(methoxymethyl)biphenyl-4-yl)-2-methylpropanamide], the EC50 in series [1] is 0.61 µM. The “Perceived Equivalent Sweet Solution” value in series [2] (setting [5]) was “Equal to 10% fructose/ % fructose/glucose”.

With `COCc1cncc(-c2ccc(C(C)(C)C(=O)NCC(C)C)cc2)c1` [Compound 32, N-isobutyl-2-(4-(5-(methoxymethyl)pyridin-3-yl)phenyl)-2-methylpropanamide], in series [1], the EC50 turned out to be 0.91 µM. Moreover, the “Perceived Equivalent Sweet Solution” value in series [2] (setting [4]) was “Equal to 8% fructose/ % fructose/glucose”.

For the compound `CC(C)CNC(=O)C(C)(C)c1ccc(-c2cccn2C)cc1` [Compound 34, N-isobutyl-2-methyl-2-(4-(1-methyl-1H-pyrrol-2-yl)phenyl)propanamide], the melting point was in the range of 59 to 60 °C. Also, the EC50 in series [1] worked out at 0.96 µM. Also, the “Perceived Equivalent Sweet Solution” value in series [2] (setting [5]) is “Equal to 8% fructose/ % fructose/glucose”.

Take `CC(C)CNC(=O)C(C)(C)c1ccc(-c2cncnc2)cc1` [Compound 43, N-isobutyl-2-methyl-2-(4-(pyrimidin-5-yl)phenyl)propanamide]: the EC50 in series [1] came to 1.01 µM. In addition, in series [2] (setting [4]), the “Perceived Equivalent Sweet Solution” value was “Equal to 8% fructose/ % fructose/glucose”.

For `COCc1cccc(-c2ccc(C(C)(C)C(=O)NCC(C)C)cc2OC)c1` [Compound 27, N-isobutyl-2-(2-methoxy-3′-(methoxymethyl)biphenyl-4-yl)-2-methylpropanamide], the EC50 in series [1] was found to be 0.26 µM. For the same compound, the “Perceived Equivalent Sweet Solution” value in series [2] (setting [5]) is “Equal to 8% fructose/ % fructose/glucose”.
